The values that follow are results of earlier work, collected in patent EP3372227A1, “TABLET FORMULATION OF ADEFOVIR DIPIVOXIL” (MH10 Spolka z ograniczona odpowiedzialnoscia, priority 2017, dated 2018).

The conditions of the data set: rat, in vivo.

In the case of `Nc1ncnc2c1ncn2CCOCP(=O)(O)O` [adefovir], the relative oral bioavailability is recorded as 7.8.
